Test results reported in patent US20240374616A1, “USE OF TERPENOIDS IN THE TREATMENT OF MASTOCYTOMA” (ARJIL BIOTECH HOLDING COMPANY LIMITED, priority 2021, published 2024).

Tests used:
RBL-2H3 cells = assay: β-hexosaminidase release assay in RBL-2H3 cells; format: cell-based; conditions: under the safety dose, compared with DMSO, FIG. 1
Experimental: β-hexosaminidase Release Assay
RBL-2H3 cells were seeded into 24 well plate (0.5×10^5 cells/0.5 mL/well), and drug treatment was added every other day for 24 hours. On the third day, 500 μL of Anti-DNP-IgE (0.1 μg/mL) was added overnight. On the fourth day, add 160 μL DNP-BSA (0.1 μg/mL in Tyrode's buffer) to each well and react at 37° C. for 1 hour. For each well in 24 wells, 50 μL of cell supernatant was mixed with 50 μL of P-NAG (triplicates), and 96 well plates were reacted at 37° C. for 1 hour. Add 100 μL of stop buffer and measure the absorbance at 405 nm, which is the β-hexosaminidase data. For 24 well plates, add 300 μL of MTT reagent (0.5 mg/mL) to each well, react at 37° C. for 2 hours, remove the supernatant, add 300 μL of DMSO to each well, and measure the absorbance at 570 nm. The data were calculated by one-way ANOVA with Dunnett's test (* […], ** p<0.01, *** p<0.001, **** p<0.0001), and plotted with Graph pad.
The results from triplicate determinations are presented as the percentage of viable cells. Statistical analysis was performed using one-way ANOVA (Dunnett's multiple comparisons test). Results are presented as the mean ±SD from at least three independent experiments. Statistical significance is indicated (ns: no significance, ** p<0.01, *** p<0.001, **** p<0.0001, compared with DMSO).

[1] = Cell Counting Kit-8 assay of cell viability on P815 cells; format: cell-based; conditions: mouse, P815 mastocytoma cells, read-out: Cell viability (%) Mean ± SD
Experimental: Mouse mastocytoma cells purchased from the Bioresource Collection and Research Center (Hsinchu City, Taiwan) and were cultured with Dulbecco's modified Eagle's (DMEM) medium (Gibco, Carlsbad, California, USA) that was supplemented with 10% fetal bovine serum (Gibco, Carlsbad, California, USA), 100 U/ml penicillin, and 100 μg/ml streptomycin.
(§1) 1×10^5 cells per well of P815 cells were pretreated with terpenoids for 18 h. 5 μL Cell Counting Kit-8 reagent was added to each well, incubating for 4 h followed by optical density determination at 450 nm by a microplate reader (Tecan Sunrise). The mean optical density (OD, absorbance) from four wells of the indicated group was used to calculate the percentage of cell viability as the formula as follows: [(ODexperiment-ODblank)/(ODcontrol-ODblank)]×100%, where ODexperiment is the absorbance of cells treated with […] terpenoid-treated cells, and ODblank is the absorbance of a well with medium only. ODcontrol is the absorbance of cells treated with 0.1% DMSO only.
as §1, with “Mouse mastocytoma cells purchased from the Bioresource Collection and Research Center (Hsinchu City, Taiwan) and were cultured with Dulbecco's modified Eagle's (DMEM) medium (Gibco, Carlsbad, California, USA) that was supplemented with 10% fetal bovine serum (Gibco, Carlsbad, California, USA), 100 U/ml penicillin, and 100 μg/ml streptomycin. 1×10^5” for “1×10^5”, “terpenoids-treated” for “terpenoid-treated”

P815 mast cell tumor = assay: H&E histopathological analysis of P815 tumor tissues; format: in vivo, mice; conditions: FIG. 11; 0.06 mg
Experimental: Mice were sacrificed on day 30, and tumors were removed, fixed with 10% formalin, 5% formic acid, and embedded in paraffin. Briefly, tumor sections were stained with hematoxylin and eosin (H&E) and analyzed by microscopy. Tissue sections were dewaxed with Xylene, and then treated with ethanol (100%, 95%, 75%, 50%). Tissues were stained with Hematoxylin for 1 minute and Eosin for 5 minutes.
The mice were administrated 100 μL samples intravenously every 2 days and sacrificed on the 30th day for histopathological examinations.

Row | SMILES | β-hexosaminidase release (RBL-2H3 cells) | viability at 18 h, 1 mg/mL ([1]; 1 mg/mL) | viability at 18 h, 2 mg/mL ([1]; 2 mg/mL) | viability at 18 h, 3 mg/mL ([1]; 3 mg/mL) | viability at 18 h, 4 mg/mL ([1]; 4 mg/mL) | viability at 18 h, 5 mg/mL ([1]; 5 mg/mL) | H&E histological stain of tumor tissues (P815 mast cell tumor) | viability at 18 h, 0.02 mg/mL ([1]; 0.02 mg/mL) | viability at 18 h, 0.04 mg/mL ([1]; 0.04 mg/mL) | viability at 18 h, 0.06 mg/mL ([1]; 0.06 mg/mL) | viability at 18 h, 0.08 mg/mL ([1]; 0.08 mg/mL) | viability at 18 h, 0.1 mg/mL ([1]; 0.1 mg/mL)
1 | C=C1C(=O)O[C@H]2/C=C(\C)CC3C=C(CC/C=C(\C)CC[C@H]12)C(=O)O3 (stereo partly drawn) [AR100-DS1, Ovatodiolide] | significantly lower | 42.4 ± 1.84% | 39.5 ± 3.09% | 40.8 ± 1.25% | 43.3 ± 0.65% | 41.4 ± 1.81% | – | – | – | – | – | –
2 | C=C(CC[C@@H](C(=O)O)[C@H]1CC[C@@]2(C)C3=CC[C@H]4C(C)(C)[C@@H](O)CC[C@]4(C)C3=CC[C@]12C)C(C)C [AR101-DS4, Dehydroeburicoic Acid] | – | – | – | – | – | – | arrest the tumor cell proliferation and cause the tumor cell nucleus aggregation | 181 ± 30.4% | 69.3 ± 4.58% | 49.7 ± 2.62% | 54.3 ± 1.85% | 49.1 ± 2.52%
